From patent US20050244829A1, “Method of screening insulin resistance inproving drug” (priority 2002, published 2005)

Experiments:
p68 RNA helicase = test: Expression level of mRNA of p68 RNA helicase during differentiation of 3T3L1 cell into fat cell (real-time PCR); assay type: cell-based; conditions: 3T3L1 cell in differentiation culture medium; pioglitazone final concentration 1 μM; 24 hours after addition; corrected on G3PDH expression
Protocol: To a culture plate (60-mm diameter; Asahi Technoglass), 2 ml of the minimum essential culture medium of DMEM (Gibco) supplemented with 10% fetal bovine serum (Sigma) was added and a culture cell 3T3L1 cell was cultured therein to become confluence. Subsequently, the culture medium was replaced with a differentiation culture medium [the minimum essential culture medium DMEM (Gibco) supplemented with insulin (at a final concentration of 10 μg/ml; Sigma), dexamethazone (at a final concentration of […]; Sigma) and 3-isobutyl-1-[…] (at a final concentration of […]; Sigma)], to which pioglitazone (at a final concentration of 1 μM) as an agent for improving insulin resistance was added or was not added. Then, it was examined as to whether or not the expression level of p68 RNA helicase changed between the culture medium with or without adding pioglitazone. 24 hours after pioglitazone addition, the cell was harvested, to extract RNA using an RNA extraction reagent (ISOGEN; Wako Pure Chemical Co., Ltd.) for reverse transcription with a reverse transcription reaction kit (Thermoscript RT-PCR System; Invitrogen). […]

[1] = test system: promoter region of p68 RNA helicase gene; test: Promoter activity of p68 RNA helicase gene, luciferase reporter assay in COS-1 cells; assay type: cell-based, monkey; conditions: COS-1 cells co-transfected with pGL3-p68-899 bp or pGL3-p68-1184 bp; pioglitazone final concentration 10 μM; 24 hours; corrected by β-galactosidase activity; FIG. 2
Protocol: The culture medium was discarded and the cell was washed with phosphate buffered saline(PBS). Per each well, 80 μl each of lysis solution (100 mM potassium phosphate, pH 7.8, 0.2% Triton X-100) was added, for cell lysis. To 20 μl of the cytolytic solution, 100 μl of a luciferase substrate solution (Wako Pure Chemical Co., Ltd.) was added to assay the luminescence with a chemiluminescence meter (Type ML3000; Dynatech Laboratories). Separately, the β-galactosidase activity of the cytolytic solution was assayed with a kit for detecting the β-galactosidase activity (Galacto-Light Plus™ system; TROPIX), and the resulting value was digitized. This was used as the transfection efficiency of introduced gene, to correct the said luciferase activity per each well. Using primers represented by SEQ ID NOS:14 and 15 designed on the basis of the nucleotide sequence of the promoter of p68 RNA helicase gene as previously reported (Rossler, et al., Nucleic Acids Res., Vol. 28, pp. 932-939, 2000) and the human genome DNA sequence (GenBank accession No. AC009994) and additionally using the human genome DNA (Clontech) as template for PCR [using DNA polymerase (LA Taq DNA polymerase; Takara Shuzo Co., Ltd.), and at 98° C. (5 minutes) and subsequently 35 times of a cycle of 96° C. […] After culturing for 48 hours, the luminescence of luciferase was assayed in the same manner as in Example 2. […]

In the case of `CCc1ccc(CCOc2ccc(CC3SC(=O)NC3=O)cc2)nc1` (single isomer, unassigned; (+)) [pioglitazone, (+)-5-[4-[2-(5-ethyl-2-pyridinyl)ethoxy]benzyl]-2,4-thiazolidinedione], the “expression level of p68 RNA helicase compared with the culture medium without pioglitazone addition” value (p68 RNA helicase) is reported as “about 1.7 fold” and the “promoter activity of p68 RNA helicase gene (luciferase activity)” value [1] is reported as “activated”.
